Reference: the NIST ThermoML archive (doi:10.1021/acs.jced.5b00355)
Numbers after ± are expanded uncertainties.

Test: cn = amount concentration of the nth substance listed, in mol/dm3
Settings: 298.2 K, 101 kPa, Liquid, Pycnometric method

Structure (SMILES): Nc1nnc(-c2cccc(Cl)c2Cl)c(N)n1 [lamotrigine] + CCOC(C)=O
- mass density (c1 = 0.0106): 995.4 ± 8 kg/m3

Structure (SMILES): Nc1nnc(-c2cccc(Cl)c2Cl)c(N)n1 [lamotrigine] + CCO
- mass density (c1 = 0.0134): 851.7 ± 6.8 kg/m3

Structure (SMILES): Nc1nnc(-c2cccc(Cl)c2Cl)c(N)n1 [lamotrigine] + CC(C)=O
- mass density (c1 = 0.0167): 852.8 ± 6.9 kg/m3

Structure (SMILES): Nc1nnc(-c2cccc(Cl)c2Cl)c(N)n1 [lamotrigine] + CCCO
- mass density (c1 = 0.0245): 893.8 ± 7.2 kg/m3

Structure (SMILES): Nc1nnc(-c2cccc(Cl)c2Cl)c(N)n1 [lamotrigine] + CO
- mass density (c1 = 0.0199): 834.7 ± 6.7 kg/m3
